This assay concerns melanoma patients. Kind of assay: Survival and IHC biomarker expression in melanoma patients undergoing anti-PD-1 therapy. The assay is classed as in vivo, human. The settings on record: for progression-free survival: greater than 25% vs less than 25% 4E-BP1 expression in pre-treatment biopsies; for progression-free survival / overall survival: Kaplan-Meier; for patients still alive 35 months after initiation of treatment: melanoma patients with >25% p-SHP2 expression in pre-treatment biopsies; for overall survival: n=34, >25% vs less than 25% melanoma-p-S6 expression in pre-treatment biopsies. Here is the method: As used herein, the term “progression-free survival” refers to the time from the first administration of anti-PD-1-based therapy to the first documented radiographic evidence of progressive disease. The term “overall survival” is defined as the time from the first administration of anti-PD-1 therapy to the date of death, regardless of cause.
Tumor cell lines, culture methods and clinical specimens: Human G3361 and C8161 and murine B16-F10 melanoma cell lines were cultured in RPMI-1640 medium (Life Technologies) supplemented with 10% (v/v) fetal bovine serum (Life Technologies) and 1% (v/v) penicillin streptomycin (Life Technologies) and human MKL-1, MKL-2, MS-1, and WaGa Merkel cell carcinoma cell lines in RPMI-1640 medium supplemented with 20% (v/v) fetal bovine serum and 1% (v/v) penicillin streptomycin. Clinical melanoma specimens were obtained from patients in accordance with the Institutional Review Boards of Partners Health Care Research Management, Boston, Mass. and the University of Zurich, Switzerland. Informed consent was obtained from all subjects.
Immunohistochemical (IHC) staining methods: Tumor biopsy sections were deparaffininzed in xylene and subsequently rehydrated with 100%, 95%, and 75% ethanol and deionized H2O. Sections were placed in target retrieval solution (Dako) and boiled in a Pascal pressure chamber (Dako) at 125° C. for 30 seconds, 90° C. for 10 seconds, and then cooled down to room temperature. IHC was performed using the two-step peroxidase or alkaline phosphatase method. For peroxidase-based detection of p-S6 and p-AKT, sections were incubated with 1 ug/ml rabbit anti-p-56 ribosomal protein or rabbit anti-p-AKT (Ser473) antibody (Cell Signaling Technology) at 4° C. overnight and then incubated with a 1:200 dilution of goat anti-rabbit IgG peroxidase conjugated antibody (Vector Laboratories) at room temperature for 1 hour. Immunoreactivity was detected using the NovaRed peroxidase substrate (Vector laboratories), according to the manufacturer's protocol. For alkaline phosphatase-based detection of t-SHP2, p-SHP2, p-S6, p-AKT, p-PI3K, p-PDK1, 4E-BP1, or p-eIF-4G, sections were incubated with a 1:200 dilution of t-SHP2, p-SHP2 (Santa Cruz Biotechnology), p-S6, p-AKT, p-PI3K, p-PDK1, 4E-BP1, or p-eIF-4G antibody (Cell Signaling Technology) for 1 hour at room temperature, followed by incubation with a 1:100 dilution of biotin-conjugated secondary antibody (R&D Systems) for 30 minutes at room temperature and a subsequent incubation with a 1:100 dilution of streptavidin-alkaline phosphatase (Roche) for 30 minutes at room temperature. Immunoreactivity was detected using the FAST Red Chromogen System (Biolegend), per the manufacturer's instructions. Nuclear counterstaining (blue) was performed with Meyer's haemalum for both methods.
Imaging and quantification of IHC tumor sections: All images of IHC-stained sections were analyzed with a Nikon microscope (DXM 1200F) and captured using the NIS-Elements software (BR 2.30 Nikon). Expression of p-S6 and 4E-BP1 antigens was graded by n=2-3 independent investigators blinded to the study outcome on a scale of 0-4 (0: no p-S6 expression by melanoma cells; 1: p-S6 expression in 1%-25%; 2: 26%-50%; 3:51%-75%; 4: >75% of melanoma cells). For each slide, at least two areas with the highest numbers of 5-100(+) and MART-1(+) melanoma cells, as determined in serial sections, were selected for analysis.

Turning to Nivolumab, the progression-free survival result is reported as “significantly increased”, the “patients still alive 35 months after initiation of treatment” value was determined as 100% and the overall survival result is recorded as “significantly enhanced”.

Take Pembrolizumab: the progression-free survival result was “significantly increased”, the “patients still alive 35 months after initiation of treatment” value came to 100% and the overall survival entry is listed as “significantly enhanced”.

The values are drawn from US20180231554A1, “PROGRAMMED CELL DEATH (PD-1) INHIBITOR THERAPY FOR PATIENTS WITH PD-1-EXPRESSING CANCERS” (The Brigham and Women's Hospital, Inc., priority 2015, published 2018).
